In ChEMBL document CHEMBL4049409, “Structure-based discovery of LpxC inhibitors” (Bioorg Med Chem Lett, 2017):
Converted amounts (≈) assume the structure as drawn.

How the values were obtained:
[1] = target: T1, UDP-3-O-acyl-N-acetylglucosamine deacetylase (Escherichia coli K-12, UniProt P0A725); experiment: Inhibition of LpxC in Escherichia coli isolate 35 ATCC 25922; design: species or system Escherichia coli ATCC 25922
T1 sequence (P0A725 whole entry): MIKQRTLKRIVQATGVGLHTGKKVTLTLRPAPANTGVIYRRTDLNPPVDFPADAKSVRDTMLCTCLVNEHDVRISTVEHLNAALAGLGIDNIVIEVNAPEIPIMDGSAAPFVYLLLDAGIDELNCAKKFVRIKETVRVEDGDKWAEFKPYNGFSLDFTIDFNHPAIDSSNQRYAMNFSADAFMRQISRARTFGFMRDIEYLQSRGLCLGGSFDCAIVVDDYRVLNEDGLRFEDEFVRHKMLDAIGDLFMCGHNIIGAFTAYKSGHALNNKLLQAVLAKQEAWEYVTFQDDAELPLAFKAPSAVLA

[2] = tested on: Escherichia coli; experiment: Antibacterial activity against Escherichia coli isolate 35 ATCC 25922; format: functional
[3] = target: T2, UDP-3-O-acyl-N-acetylglucosamine deacetylase (Pseudomonas aeruginosa (strain ATCC 15692 / PAO1 / 1C / PRS 101 / LMG12228), UniProt P47205); experiment: Inhibition of LpxC in Pseudomonas aeruginosa isolate 44 ATCC 27853
T2 sequence (P47205 whole entry): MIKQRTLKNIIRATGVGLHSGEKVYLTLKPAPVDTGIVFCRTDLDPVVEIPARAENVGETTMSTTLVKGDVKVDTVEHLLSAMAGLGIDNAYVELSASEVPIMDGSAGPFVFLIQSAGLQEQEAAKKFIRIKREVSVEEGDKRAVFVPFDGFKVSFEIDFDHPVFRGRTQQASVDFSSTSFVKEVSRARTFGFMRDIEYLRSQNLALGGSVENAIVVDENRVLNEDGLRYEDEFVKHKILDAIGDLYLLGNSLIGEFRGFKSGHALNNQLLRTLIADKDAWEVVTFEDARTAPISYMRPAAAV

[4] = tested on: Pseudomonas aeruginosa; experiment: Antibacterial activity against Pseudomonas aeruginosa isolate 44 ATCC 27853; format: functional
[5] = tested on: Pseudomonas aeruginosa; experiment: Antibacterial activity against Pseudomonas aeruginosa isolate 847; format: functional
[6] = target: T2, UDP-3-O-acyl-N-acetylglucosamine deacetylase; experiment: Inhibition of LpxC in Pseudomonas aeruginosa isolate 847
[7] = tested on: Pseudomonas aeruginosa; experiment: Antibacterial activity against Pseudomonas aeruginosa isolate 839 harboring mexAB-oprM deletion mutant; format: functional
[8] = tested on: Klebsiella pneumoniae; experiment: Antibacterial activity against Klebsiella pneumoniae isolate 21 ATCC 4352; format: functional
[9] = Fraction unbound in rat plasma at 10 uM by equilibrium dialysis method; format: ADME, cell-free
[10] = Fraction unbound in mouse plasma at 10 uM by equilibrium dialysis method; format: ADME, cell-free
[11] = Fraction unbound in cynomolgus monkey plasma at 10 uM by equilibrium dialysis method; format: ADME, cell-free, Macaca fascicularis
[12] = Fraction unbound in human plasma at 10 uM by equilibrium dialysis method; format: ADME, cell-free
[13] = tested on: Rattus norvegicus; experiment: Dose normalized AUC in rat at 10 mg/kg, iv; format: ADME, organism-based; conditions: in vivo
[14] = tested on: Mus musculus; experiment: Dose normalized AUC in mouse at 2 mg/kg, iv; format: ADME, organism-based; conditions: in vivo
[15] = tested on: Mus musculus; experiment: Dose normalized AUC in mouse at 10 mg/kg, sc; format: ADME, organism-based; conditions: in vivo
[16] = tested on: Cynomolgus monkey; experiment: Dose normalized AUC in cynomolgus monkey at 10 mg/kg, iv; format: ADME, organism-based, Macaca fascicularis; conditions: in vivo
[17] = Volume of distribution at steady state in rat at 10 mg/kg, iv; format: ADME, organism-based; conditions: in vivo, read-out: Vdss
[18] = Volume of distribution at steady state in mouse at 2 mg/kg, iv; format: ADME, organism-based; conditions: in vivo, read-out: Vdss
[19] = Volume of distribution at steady state in cynomolgus monkey at 10 mg/kg, iv; format: ADME, organism-based, Macaca fascicularis; conditions: in vivo, read-out: Vdss
[20] = Half life in rat at 10 mg/kg, iv; format: ADME, organism-based; conditions: in vivo
[21] = Half life in mouse at 2 mg/kg, iv; format: ADME, organism-based; conditions: in vivo
[22] = Half life in mouse at 10 mg/kg, sc; format: ADME, organism-based; conditions: in vivo
[23] = Half life in cynomolgus monkey at 10 mg/kg, iv; format: ADME, organism-based, Macaca fascicularis; conditions: in vivo
[24] = Clearance in rat at 10 mg/kg, iv; format: ADME, organism-based; conditions: in vivo
[25] = Clearance in mouse at 2 mg/kg, iv; format: ADME, organism-based; conditions: in vivo
[26] = Clearance in mouse at 10 mg/kg, sc; format: ADME, organism-based; conditions: in vivo
[27] = Clearance in cynomolgus monkey at 10 mg/kg, iv; format: ADME, organism-based, Macaca fascicularis; conditions: in vivo
[28] = Bioavailability in mouse at 10 mg/kg, sc; format: ADME, organism-based; conditions: in vivo
[29] = tested on: Escherichia coli; experiment: Antibacterial activity against Escherichia coli assessed as 2 log reduction in bladder bacterial burden in in-vivo urinary tract infection model; format: functional
[30] = tested on: Klebsiella pneumoniae; experiment: Antibacterial activity against Klebsiella pneumoniae assessed as 3 log reduction in lung bacterial burden in in-vivo lung infection model; format: functional
[31] = tested on: Pseudomonas aeruginosa; experiment: Antibacterial activity against Pseudomonas aeruginosa assessed as reduction in bacterial burden in in-vivo blood infection septicemia model; format: functional; conditions: read-out: PD50
[32] = tested on: Pseudomonas aeruginosa; experiment: Antibacterial activity against Pseudomonas aeruginosa assessed as 3-log reduction in bacterial burden in in-vivo thigh infection model; format: functional
[33] = tested on: Pseudomonas aeruginosa; experiment: Antibacterial activity against Pseudomonas aeruginosa assessed as 3-log reduction in bacterial burden in in-vivo lung infection model; format: functional
[34] = Aqueous solubility of the compound in pH 7.4 buffer; format: physicochemical
[35] = tested on: Rattus norvegicus; experiment: Acute toxicity in rat at 75 mg/kg using Tween-80 formulation; format: organism-based; conditions: in vivo
[36] = tested on: Rattus norvegicus; experiment: Acute toxicity in rat at 200 mg/kg using capsitol capsulated formulation; format: organism-based; conditions: in vivo
[37] = tested on: Rattus norvegicus; experiment: Toxicity in rat at 100 mg/kg, iv administered as bolus dose using 10% capsitol formulation for 7 days; format: organism-based; conditions: in vivo, 168 h
[38] = species on record: Rattus norvegicus; experiment: Displacement of sodium channel site 2 in [3H]Batrachotoxinin from Wistar rat brain membranes at 25 uM after 60 mins relative to control; conditions: Membrane
[39] = Displacement of sodium channel site 2 in [3H]Batrachotoxinin from Wistar rat brain membranes after 60 mins; design: species or system Membrane
[40] = target: T3, Muscarinic acetylcholine receptor M2 (Homo sapiens) (UniProt P08172); experiment: Antagonist activity at muscarinic M2 receptor (unknown origin) at 25 uM relative to control
T3 sequence (whole entry): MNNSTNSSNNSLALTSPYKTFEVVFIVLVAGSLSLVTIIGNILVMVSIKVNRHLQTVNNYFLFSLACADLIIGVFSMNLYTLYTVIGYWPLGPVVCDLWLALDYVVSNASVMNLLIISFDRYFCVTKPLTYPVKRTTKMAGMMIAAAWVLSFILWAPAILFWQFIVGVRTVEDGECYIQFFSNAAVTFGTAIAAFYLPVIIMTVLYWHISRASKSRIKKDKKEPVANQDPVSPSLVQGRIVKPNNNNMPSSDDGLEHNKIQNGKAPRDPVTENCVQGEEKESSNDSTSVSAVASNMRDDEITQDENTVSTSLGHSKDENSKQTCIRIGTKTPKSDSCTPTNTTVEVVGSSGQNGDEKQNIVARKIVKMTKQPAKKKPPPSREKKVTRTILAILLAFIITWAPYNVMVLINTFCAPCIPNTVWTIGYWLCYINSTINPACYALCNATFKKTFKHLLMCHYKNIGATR

[41] = target: Sigma intracellular receptor 2 (Homo sapiens) (UniProt Q5BJF2); experiment: Antagonist activity at sigma2 receptor (unknown origin) at 25 uM relative to control
[42] = Inhibition of LpxC in Klebsiella pneumoniae isolate 21 ATCC 4352
[43] = Inhibition of LpxC in Acinetobacter baumannii focus ID 961025
[44] = tested on: Acinetobacter baumannii; experiment: Antibacterial activity against Acinetobacter baumannii focus ID 961025; format: functional

Sigma intracellular receptor 2 (Homo sapiens), sequence (Q5BJF2 whole entry): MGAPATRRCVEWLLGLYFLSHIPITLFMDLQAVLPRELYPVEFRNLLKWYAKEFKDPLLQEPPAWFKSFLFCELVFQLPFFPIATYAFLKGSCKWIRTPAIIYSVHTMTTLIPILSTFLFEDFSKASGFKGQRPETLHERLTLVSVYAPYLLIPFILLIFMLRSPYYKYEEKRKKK

SMILES: CC(C)(N)[C@H](N[C@H]1CCc2cc(C#Cc3ccc(CN4CCOCC4)cc3)ccc21)C(=O)NO
- IC50 [1]: 2 nM
- MIC [2]: 0.5 µg/mL (≈ 1.08 µM)
- IC50 [3]: 6 nM
- MIC [4]: 4 µg/mL (≈ 8.65 µM)
- MIC [5]: 0.5 µg/mL (≈ 1.08 µM)
- IC50 [6]: 1 nM
- MIC [7]: 0.25 µg/mL (≈ 0.54 µM)

SMILES: CC(C)(N)[C@H](N[C@H]1CCc2cc(C#Cc3ccc(Cn4ccnc4CO)cc3)ccc21)C(=O)NO
- IC50 [1]: 4 nM
- MIC [2]: 0.5 to 1 µg/mL (≈ 1.06 to 2.11 µM)
- MIC90 [2]: 1 µg/mL (≈ 2.11 µM)
- MIC [8]: 0.125 µg/mL (≈ 0.264 µM)
- MIC90 [8]: 8 µg/mL (≈ 16.9 µM)
- IC50 [3]: 4 nM
- MIC [4]: 1 µg/mL (≈ 2.11 µM)
- MIC90 [4]: 4 µg/mL (≈ 8.45 µM)
- MIC [5]: 4 µg/mL (≈ 8.45 µM)
- IC50 [6]: 2 nM
- MIC [7]: 0.125 µg/mL (≈ 0.264 µM)
- fraction unbound at 10 µM [9]: 0.05
- fraction unbound at 10 µM [10]: 0.067
- fraction unbound at 10 µM [11]: 0.047
- fraction unbound at 10 µM [12]: 0.06
- AUC/dose [13]: 1.07 µg·h/mL/mg/kg
- AUC/dose [14]: 0.95 µg·h/mL/mg/kg
- AUC/dose [15]: 0.7 µg·h/mL/mg/kg
- AUC/dose [16]: 4.07 µg·h/mL/mg/kg
- Vd [17]: 0.68 L/kg
- Vd [18]: 0.4 L/kg
- Vd [19]: 0.38 L/kg
- half-life [20]: 1.87 h
- half-life [21]: 1.7 h
- half-life [22]: 1.2 h
- half-life [23]: 6.54 h
- clearance [24]: 15.6 mL/min/kg
- clearance [25]: 17.5 mL/min/kg
- CL/F [26]: 24.4 mL/min/kg
- clearance [27]: 4.39 mL/min/kg
- bioavailability [28]: 74%
- ED [29]: 15.1 mg/kg
- ED [30]: 2.7 mg/kg
- ED50 [31]: 13 mg/kg
- ED [32]: 25 mg/kg
- ED [33]: 32 mg/kg
- solubility [34]: 850 µg/mL (≈ 1790 µM)
- Activity [35]: Toxic
- Activity [36]: Non-Toxic
- Activity [37]: Non-Toxic
- inhibition [38]: 97%
- IC50 [39]: 400 nM
- inhibition [40]: > 50%
- inhibition [41]: > 50%

SMILES: CC(C)(O)[C@H](N[C@H]1CCc2cc(C#Cc3ccc(CN4CCOCC4)cc3)ccc21)C(=O)NO
- IC50 [1]: 1 nM
- MIC [2]: 0.25 µg/mL (≈ 0.539 µM)
- MIC [8]: < 0.03 µg/mL
- IC50 [3]: 3 nM
- MIC [4]: 32 µg/mL (≈ 69 µM)
- IC50 [6]: 0.4 nM
- MIC [7]: 0.25 µg/mL (≈ 0.539 µM)

SMILES: C[C@@H](O)[C@H](N[C@H]1CCc2cc(C#Cc3ccc(CN4CCOCC4)cc3)ccc21)C(=O)NO
- IC50 [1]: 2 nM
- MIC [2]: < 0.125 µg/mL
- IC50 [42]: 2 nM
- MIC [8]: < 0.125 µg/mL
- IC50 [3]: 3 nM
- MIC [4]: 8 µg/mL (≈ 17.8 µM)
- IC50 [43]: 70 nM
- MIC [44]: 32 µg/mL (≈ 71.2 µM)
- MIC [5]: 2 µg/mL (≈ 4.45 µM)
- IC50 [6]: 2 nM
- MIC [7]: 0.25 µg/mL (≈ 0.556 µM)
